According to ChEMBL document CHEMBL1201862, “PubChem BioAssay data set” (2004):
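Cultured in 96-well plates, cells were exposed to test compound for 48 hours across five concentrations. At the GI50, growth is halved.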 Calls of active or inactive are those of the source. Rule as the data show it: active = GI50 up to about 1.1 µM and inactive = higher.

How the values were obtained:
Assay in all cases: NCI anticancer screen, dose series, 48 h
A498 = test system: A498
COLO 205 = test system: COLO 205
DU-145 = test system: DU-145
HL-60 = test system: HL-60
HOP-62 = test system: HOP-62
HOP-92 = test system: HOP-92
Hs-578T = test system: Hs-578T
MDA-MB-231 = test system: MDA-MB-231
Malme-3M = test system: Malme-3M
NCI-H226 = test system: NCI-H226
OVCAR-5 = test system: OVCAR-5
PC-3 = test system: PC-3
SF-295 = test system: SF-295
SK-MEL-5 = test system: SK-MEL-5
SR = test system: SR
TK-10 = test system: TK-10
UACC-62 = test system: UACC-62
UO-31 = test system: UO-31
M14 = test system: M14

Measured: GI50

NC1CCC(N(CC(=O)O)CC(=O)O)C(N(CC(=O)O)CC(=O)O)C1 (stereo unspecified)
inactive: A498 > 100 µM | COLO 205 > 100 µM | DU-145 > 100 µM | HL-60 > 100 µM | HOP-62 > 100 µM | HOP-92 > 100 µM | Hs-578T > 100 µM | MDA-MB-231 > 100 µM | Malme-3M > 100 µM | NCI-H226 > 100 µM | OVCAR-5 > 100 µM | PC-3 > 100 µM | SF-295 > 100 µM | SK-MEL-5 > 100 µM | SR > 100 µM | TK-10 > 100 µM | UACC-62 > 100 µM | UO-31 > 100 µM

COc1cc(C2=N/C(=C/c3cccs3)C(=O)O2)cc(OC)c1OC
inactive: A498 > 100 µM | COLO 205 > 100 µM | DU-145 > 100 µM | HL-60 > 100 µM | HOP-62 > 100 µM | HOP-92 > 100 µM | Hs-578T > 100 µM | M14 > 100 µM | MDA-MB-231 > 100 µM | Malme-3M > 100 µM | NCI-H226 > 100 µM | OVCAR-5 > 100 µM | PC-3 > 100 µM | SF-295 > 100 µM | SK-MEL-5 > 100 µM | SR > 100 µM | TK-10 > 100 µM | UACC-62 > 100 µM

COc1cc2c(cc1OC)C(=O)N(c1ccc(O)cc1)C2=O
inactive: A498 > 100 µM | COLO 205 > 100 µM | DU-145 > 100 µM | HL-60 > 100 µM | HOP-62 > 100 µM | HOP-92 > 100 µM | Hs-578T > 100 µM | M14 > 100 µM | MDA-MB-231 > 100 µM | Malme-3M > 100 µM | NCI-H226 > 100 µM | OVCAR-5 > 100 µM | PC-3 > 100 µM | SF-295 > 100 µM | SK-MEL-5 > 100 µM | SR > 100 µM | TK-10 > 100 µM | UACC-62 > 100 µM

COc1ccccc1NC(=O)CC(=O)NN
inactive: A498 > 100 µM | COLO 205 > 100 µM | DU-145 > 100 µM | HL-60 > 100 µM | HOP-62 > 100 µM | HOP-92 > 100 µM | Hs-578T > 100 µM | MDA-MB-231 > 100 µM | Malme-3M > 100 µM | NCI-H226 > 100 µM | OVCAR-5 > 100 µM | PC-3 > 100 µM | SF-295 > 100 µM | SK-MEL-5 > 100 µM | SR > 100 µM | TK-10 > 100 µM | UACC-62 > 100 µM | UO-31 > 100 µM

CCOC(=O)NC1CN2CCC1CC2 (stereo unspecified)
inactive: A498 > 100 µM | COLO 205 > 100 µM | DU-145 > 100 µM | HL-60 > 100 µM | HOP-62 > 100 µM | HOP-92 > 100 µM | Hs-578T > 100 µM | M14 > 100 µM | MDA-MB-231 > 100 µM | Malme-3M > 100 µM | NCI-H226 > 100 µM | OVCAR-5 > 100 µM | PC-3 > 100 µM | SF-295 > 100 µM | SK-MEL-5 > 100 µM | SR > 100 µM | UACC-62 > 100 µM | UO-31 > 100 µM

CC/C=C\C=C/C(=O)N/C=C/CCC
inactive: A498 23.5 µM | DU-145 > 100 µM | HL-60 > 100 µM | HOP-62 > 100 µM | HOP-92 27.7 µM | Hs-578T > 100 µM | M14 > 100 µM | MDA-MB-231 > 100 µM | Malme-3M > 100 µM | NCI-H226 > 100 µM | OVCAR-5 > 100 µM | PC-3 85.1 µM | SR 33.3 µM | TK-10 > 100 µM | UACC-62 47.2 µM | UO-31 > 100 µM

Clc1ccc(COC(Cn2ccnc2)c2ccc(Cl)cc2Cl)cc1 (stereo unspecified) [ECONAZOLE NITRATE]
inactive: A498 11.6 µM | COLO 205 8.28 µM | DU-145 14.4 µM | HL-60 4.19 µM | HOP-62 15.5 µM | HOP-92 11.8 µM | Hs-578T 17.1 µM | M14 13 µM | MDA-MB-231 12.4 µM | Malme-3M 16.4 µM | OVCAR-5 14.5 µM | PC-3 9.16 µM | SF-295 9.57 µM | SR 3.49 µM | TK-10 11.4 µM | UACC-62 9.86 µM | UO-31 3.41 µM

COc1ccc(C(=O)O[C@H]2CC[C@@]3(C)[C@@H]4CC[C@H]5[C@]6(O)C[C@H](O)[C@@]7(O)[C@@H](CN8C[C@@H](C)CC[C@H]8[C@@]7(C)O)[C@]6(O)C[C@@]53OC24O)cc1OC [VERATRIDINE]
inactive: A498 > 100 µM | COLO 205 > 100 µM | DU-145 > 100 µM | HOP-62 > 100 µM | HOP-92 > 100 µM | Hs-578T > 100 µM | M14 > 100 µM | MDA-MB-231 > 100 µM | Malme-3M > 100 µM | NCI-H226 44.3 µM | OVCAR-5 > 100 µM | PC-3 > 100 µM | SF-295 > 100 µM | SK-MEL-5 > 100 µM | SR 74.8 µM | TK-10 > 100 µM | UACC-62 > 100 µM | UO-31 > 100 µM
